Results published in patent publication US9107408B2, “Plant disease controlling composition and method for controlling plant disease” (SUMITOMO CHEMICAL COMPANY, LIMITED, priority 2010, dated 2015).
Read-outs that look alike come from different tables or passages of the source.

System: gray mold fungus (Botrytis cinerea)
Experiment: Cucumber leaf disk preventive test against gray mold fungus
Assay type: in vivo
Settings: for pest or weed control at 0.5 ppm / pest or weed control at 5 ppm: Botrytis cinerea, foliar, 96 h, read-out: preventive value (%)
Experimental: True leaf of cucumber is punched out with cork borer to 13 mm in diameter to prepare a leaf disk. In 24 well microwell plate that is dispensed with 1 ml 0.8% water agar, the leaf disk is placed such that the upper side of the leaf is in an upward direction. Thereto is added 20 micro liter a testing solution prepared by mixing a dimethyl sulfoxide solution of the present compound (racemate) and a dimethyl sulfoxide solution of tebuconazole to a predetermined concentration to treat the leaf disk.
After confirming that the testing medical solution is dried, conidium of gray mold fungus (Botrytis cinerea) is suspended into potato dextrose broth (DIFCO) in a density of about 10^5 conidium/mL and is then subjected to a spray inoculation. After leaving to stand the leaf disk in a growth chamber set up at 15° C. for four days, an onset area on the leaf is measured and then calculated an onset area rate (hereinafter, referred to as an onset area rate of treated group).
The same operation is carried out with 20 micro liter water instead of 20 micro liter a testing medicine solution to calculate an onset area rate (hereinafter, referred to an onset area rate of non-treated group).
A preventive value is calculated from the above onset area rate of treated group and the onset area rate of non-treated group by the following equation: Preventive value (%)=100×(A−B)/A
A: an onset area rate of treated group
B: an onset area rate of non-treated group
The same operations as described in Test Example 1 are carried out with triadimenol, bitertanol, oxpoconazole fumarate, cyazofamid, pefurazoate, triflumizole, or hymexazol instead of tebuconazole, so as to calculate respective preventive values.
Also for comparison, the same operations as described in Test Example 1 are carried out with the exception that the testing medicine solution is substituted with a predetermined concentration of each dimethyl sulfoxide solution of the present compound (racemate), triadimenol, bitertanol, oxpoconazole fumarate, cyazofamid, pefurazoate, triflumizole, or hymexazol, so as to calculate respective preventive values.
For comparison, the same operations as described in Test Example 1 are carried out with the exception that the testing medicine solution is substituted with a predetermined concentration of a dimethyl sulfoxide solution of tebuconazole, so as to calculate a preventive value.

[1] = azole compound alone 0.5 ppm, cucumber leaf disk, 15° C., four days
[2] = azole compound alone 5.0 ppm, cucumber leaf disk, 15° C., four days

SMILES | pest or weed control at 0.5 ppm [1] [%] | pest or weed control at 5 ppm [2] [%] | other results
CC(C)(C)C(O)C(Oc1ccc(-c2ccccc2)cc1)n1cncn1 (stereo not shown) [bitertanol] | 45 | 56 | –
Cc1ccc(-c2c(Cl)nc(C#N)n2S(=O)(=O)N(C)C)cc1 [cyazofamid] | 10 | 15 | –
Cc1cc(O)no1 [hymexazol] | 5 | 10 | –
CC1(C)COC(C)(CCCc2ccc(Cl)cc2)N1C(=O)n1ccnc1.CC1(C)COC(C)(CCCc2ccc(Cl)cc2)N1C(=O)n1ccnc1.O=C(O)/C=C/C(=O)O (stereo not shown) [oxpoconazole fumarate] | – | – | preventive value (%) [1]: 49%; preventive value (%) [2]: 59%
C=CCCCOC(=O)C(CC)N(Cc1ccco1)C(=O)n1ccnc1 (stereo not shown) [pefurazoate] | – | – | pest or weed control at 0.5 ppm: 44%; pest or weed control at 5 ppm: 53%
CC(C)(C)C(O)(CCc1ccc(Cl)cc1)Cn1cncn1 (stereo not shown) [tebuconazole] | 40 | 54 | –
CC(C)(C)C(O)C(Oc1ccc(Cl)cc1)n1cncn1 (stereo not shown) [triadimenol] | 45 | 58 | –
CCCOC/C(=N\c1ccc(Cl)cc1C(F)(F)F)n1ccnc1 [triflumizole] | 44 | 57 | –
